In brackets after ≈: the same amount, converted by molar mass.
Legend:
PDE4 (U937) = assay: PDE4 enzyme inhibition, IMAP fluorescence polarization assay; format: biochemical, human; settings: for IC50: PDE4 partially purified from U937 cells
Method: PDE4 is partially purified from undifferentiated human monocytic cells (U937) according to Thorpy et al. 1992 (J. Pharmacol. Exp. Ther. 263: 1195). Cells are grown in Iscove's modified Dulbecco's medium (GIBCO) with 5% foetal bovine serum (GIBCO) and 100 μg/mL penicillin-streptomycin (GIBCO). Cells are broken by sonication and PDE4 is purified by anion-exchange chromatography on DEAE-Sepharose CL-6B (GE Healthcare). […] In addition, PDE4 preparations are validated by inhibition studies with PDE4-specific and unspecific PDE inhibitors.
PDEs specifically hydrolyze cAMP and/or cGMP and release the product AMP and/or GMP. The potency of PDE inhibition by test compounds is determined with a commercially available in vitro enzymatic assay (IMAP® Fluorescence Polarization assay, Molecular Devices Corp.). Fluorescently labeled cAMP or cGMP is hydrolyzed by PDE preparations and in a second step, binding of labeled product to a large binding partner allows product detection by fluorescence polarization (FP) measurements.
Stock solutions of the test compounds are made in DMSO and diluted in assay buffer (10 mM Tris-HCl, 10 mM MgCl2, 0.1% BSA 0.05% NaN3, pH 7.2) to the desired concentrations. The solutions used in the assay contain the test compound in assay buffer with 2% DMSO. 5 μl of this pre-diluted test compound solution are mixed with 10 μl of substrate (FL-cAMP or FL-cGMP) at concentrations recommended by the manufacturer and with 5 μl of appropriately diluted PDE. 5 μl of reaction buffer with 2% DMSO are used for control reactions. […] After incubation for 90 minutes at room temperature, 60 μl of binding reagent are added as specified by the manufacturer. Binding is allowed to proceed for 30 minutes and fluorescence polarization is measured. Dose dependence of PDE inhibition is measured by assaying dilution series of test compounds. IC50 values are determined from the measured activities by curve fitting.

H. influenzae 3168 = assay: MIC determination by broth microdilution; format: cell-based; settings: Haemophilus influenzae, read-out: MIC (μg/ml) H. influenzae 3168
Method: (§1) All MIC values are determined by broth microdilution according to the guidelines by the Clinical and Laboratory Standards Institute (CLSI, Wayne Pa., USA). Staphylococcus aureus ATCC29213 is grown on Müller-Hinton agar (MHA) (Becton Dickinson) and then in cation-adjusted Müller Hinton broth (CaMHB) (Becton Dickinson) for 24 h at 37° C. Streptococcus pyogenes ATCC19615 and Moraxella catharrhalis QK34 are grown on MHA with 2.5% Laked Horse Blood (Oxoid). Liquid cultures in CaMHB+5% horse serum (Sigma) are incubated for 24 h at 35° C. in a 5% CO2 atmosphere. Haemophilus. influenzae 3168 is grown on MHA+2.5% Fildes extract (Oxoid). Liquid cultures are grown in CaMHB+5% Fildes extract at 35° C. in a 5% CO2 atmosphere. Propionibacteria are grown on Wilkins-Chalgren agar (WCA) (Oxoid) for 72 h under anaerobic conditions. Liquid cultures are grown anaerobically in Wilkins-Chalgren broth (WCB) (Oxoid) for 48 h at 35° C. MIC values are obtained by broth microdilution using WCB (Anaerobe Broth MIC, Difco). Microtitre plates are loaded into 7-L GENbox anaerobic incubation jars (BioMerieux) fitted with anaerobic atmosphere generators (BioMerieux) and a Dry Anaerobic Indicator Strip (BBL). Under these conditions, an O2 concentration <0.1% is achieved by 2.5 h, and a CO2 concentration >15% by 24 h.

S. aureus ATCC29213 = assay: MIC determination by broth microdilution; format: cell-based; settings: Staphylococcus aureus, read-out: MIC (μg/ml) S. aureus ATCC29213
Method: as §1

S. pyogenes ATCC19615 = assay: MIC determination by broth microdilution; format: cell-based; settings: Streptococcus pyogenes, read-out: MIC (μg/ml) S. pyogenes ATCC19615
Method: as §1

M. catarrhalis QK34 = assay: MIC determination by broth microdilution; format: cell-based, Moraxella catharrhalis; settings: Moraxella catarrhalis, read-out: MIC (μg/ml) M. catarrhalis QK34
Method: as §1

P. acnes EG7NS = assay: MIC determination by broth microdilution (anaerobic); format: cell-based, Propionibacterium acnes; settings: for MIC: Cutibacterium acnes, EG7NS, read-out: MIC (μg/ml) P. acnes EG7NS
Method: as §1

P. granulosum EG13NS = assay: as above; format: cell-based; settings: read-out: MIC (μg/ml) P. granulosum EG13NS
Method: as §1

[1] = Oral bioavailability, pharmacokinetic study in mice; format: in vivo, mouse; settings: for bioavailability: in vivo, mouse, 10 mg/kg oral, 1 mg/kg intravenous, dose-normalized AUC, read-out: Oral bioavail. (mouse F %)
Method: Drug concentrations in blood or plasma are determined as a function of time in pharmacokinetic studies. Mice were treated with the test compound at defined doses. 10 mg/kg is used for oral administration and 1 mg/kg is taken for intravenous administration. Blood or plasma samples are collected at defined time-points and the drug content is determined by LC-MS/MS. The drug concentration is plotted as a function of time and the non-intravenous (oral) and the intravenous area under the curve (AUC) is calculated using the linear trapezoidal rule. The oral bioavailability is then calculated using dose-normalized AUC with the following formula: F[%]=AUCoral/AUCintravenous*100 Blocking of hERG Channel

hERG channel = hERG channel (Homo sapiens (Human), UniProt Q12809); assay: Blocking of hERG channel, whole-cell patch clamp in stably transfected HEK 293 cells; format: cell-based; settings: for Blocking of hERG @ 1 μM (% remaining tail current) / Blocking of hERG @ 10 μM (% remaining tail current): HEK 293 cells
hERG channel, sequence (Q12809 whole entry): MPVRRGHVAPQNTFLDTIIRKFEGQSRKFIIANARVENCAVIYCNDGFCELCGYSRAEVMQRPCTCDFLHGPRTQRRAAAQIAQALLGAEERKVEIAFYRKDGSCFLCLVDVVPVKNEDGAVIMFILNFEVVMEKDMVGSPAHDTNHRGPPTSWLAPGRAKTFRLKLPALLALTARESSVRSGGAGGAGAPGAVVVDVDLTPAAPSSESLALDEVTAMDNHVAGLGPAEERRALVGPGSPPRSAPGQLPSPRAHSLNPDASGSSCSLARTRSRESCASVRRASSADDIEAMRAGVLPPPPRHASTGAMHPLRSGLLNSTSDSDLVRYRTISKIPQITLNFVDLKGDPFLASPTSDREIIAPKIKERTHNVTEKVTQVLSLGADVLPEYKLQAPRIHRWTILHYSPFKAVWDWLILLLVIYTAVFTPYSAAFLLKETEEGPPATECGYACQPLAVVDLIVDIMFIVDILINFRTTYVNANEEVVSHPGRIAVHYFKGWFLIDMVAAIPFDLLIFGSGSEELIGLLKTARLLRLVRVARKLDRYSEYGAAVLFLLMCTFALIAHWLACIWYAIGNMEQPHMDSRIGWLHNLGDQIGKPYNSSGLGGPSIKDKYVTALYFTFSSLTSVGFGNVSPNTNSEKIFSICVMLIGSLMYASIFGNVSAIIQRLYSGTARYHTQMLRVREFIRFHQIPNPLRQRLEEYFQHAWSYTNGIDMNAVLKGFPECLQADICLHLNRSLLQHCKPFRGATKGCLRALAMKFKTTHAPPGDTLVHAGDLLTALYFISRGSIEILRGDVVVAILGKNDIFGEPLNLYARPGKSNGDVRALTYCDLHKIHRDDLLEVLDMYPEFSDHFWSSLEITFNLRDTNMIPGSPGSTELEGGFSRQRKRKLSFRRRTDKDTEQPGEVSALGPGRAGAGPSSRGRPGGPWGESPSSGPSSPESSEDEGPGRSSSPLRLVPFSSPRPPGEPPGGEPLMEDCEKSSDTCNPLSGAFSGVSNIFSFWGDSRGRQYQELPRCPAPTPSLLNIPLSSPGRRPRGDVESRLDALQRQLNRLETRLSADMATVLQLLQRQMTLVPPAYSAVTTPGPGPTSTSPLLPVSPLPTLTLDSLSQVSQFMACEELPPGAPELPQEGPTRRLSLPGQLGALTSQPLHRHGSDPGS

bacteria = assay: Antibacterial activity; format: cell-based
Method: as §1

Structure (SMILES)	IC50 (PDE4 (U937)) [µM]	MIC (H. influenzae 3168) [µg/mL]	MIC (S. aureus ATCC29213) [µg/mL]	MIC (S. pyogenes ATCC19615) [µg/mL]	MIC (M. catarrhalis QK34) [µg/mL]	MIC (P. acnes EG7NS) [µg/mL]	MIC (P. granulosum EG13NS) [µg/mL]	bioavailability [1] [%]	Blocking of hERG @ 1 μM (% remaining tail current) (hERG channel) [%]	Blocking of hERG @ 10 μM (% remaining tail current) (hERG channel) [%]	PDE4-inhibiting activity (in words) (PDE4 (U937))	oral bioavailability (in words) [1]	hERG channel inhibiting activity (in words) (hERG channel)	antibacterial activity (in words) (bacteria)	activity against certain strains of Propionibacterium acnes (in words) (P. acnes EG7NS)
CC[C@H]1OC(=O)[C@H](C)[C@@H](O)[C@H](C)[C@@H](O[C@@H]2O[C@H](C)C[C@H](N(C)C(=O)N3CCOCC3)[C@H]2O)[C@](C)(OC)C[C@@H](C)C(=O)[C@H](C)[C@H]2[C@H](SCCOc3cc(C(=O)Nc4c(Cl)cncc4Cl)ccc3OC)C(=O)O[C@@]21C	0.0001	> 32	> 32	> 32	> 32	> 32	> 32	11.5	99.9	100					
CC[C@H]1OC(=O)[C@H](C)[C@@H](O[C@H]2C[C@@](C)(OC)[C@@H](O)[C@H](C)O2)[C@H](C)[C@@H](O[C@@H]2O[C@H](C)C[C@H](N(C)C(=O)N3CCOCC3)[C@H]2O)[C@](C)(OC)C[C@@H](C)C(=O)[C@H](C)[C@H]2[C@H](SCCN(Cc3c(Cl)cncc3Cl)c3ccc(OC)c(OC4CCCC4)c3)C(=O)O[C@@]21C	0.043	> 32	> 32	> 32	> 32	> 32	> 32	1.5	99.2	82.9					
CC[C@H]1OC(=O)[C@H](C)[C@@H](O)[C@H](C)[C@@H](O[C@@H]2O[C@H](C)C[C@H](N(C)C(=O)N3CCOCC3)[C@H]2O)[C@](C)(OC)C[C@@H](C)C(=O)[C@H](C)[C@H]2C(SCCN(Cc3c(Cl)cncc3Cl)c3ccc(OC)c(OC4CCCC4)c3)C(=O)O[C@@]21C (stereo in doubt) [compound of formula (I)]	0.035	> 32	> 32	> 32	> 32	> 32	> 32	22.8	99.9	98	excellent	particularly good	does not inhibit	strongly reduced	
CC[C@H]1OC(=O)[C@H](C)[C@@H](O[C@H]2C[C@@](C)(OC)[C@@H](O)[C@H](C)O2)[C@H](C)[C@@H](O[C@@H]2O[C@H](C)C[C@H](N(C)C(=O)N3CCOCC3)[C@H]2O)[C@](C)(OC)C[C@@H](C)C(=O)[C@H](C)[C@H]2N(CCCOc3cc(C(=O)Nc4c(Cl)cncc4Cl)ccc3OC)C(=O)O[C@]12C [Example 2 of WO2001/018510]	0.876	> 32	> 32	> 32	> 32	2 (≈ 1.63 µM)	> 32	16.2	99	84		moderate to good	acceptable	low against many bacterial strains	still very active
CC[C@H]1OC(=O)[C@H](C)[C@@H](O)[C@H](C)[C@@H](O[C@@H]2O[C@H](C)C[C@H](N(C)C)[C@H]2OC)[C@](C)(OC)C[C@@H](C)C(=O)[C@H](C)[C@H]2[C@H](SCCN(Cc3c(Cl)cncc3Cl)c3ccc(OC)c(OC4CCCC4)c3)C(=O)O[C@@]21C [Example 9 of WO2009/106419]	0.3	> 32	8 (≈ 7.6 µM)	32 (≈ 30.4 µM)	> 32	4 (≈ 3.8 µM)	4 (≈ 3.8 µM)	9	23.7	3.7	good to moderate	moderate	rather strong	antibacterially inactive against many pathogenic types of bacteria	
CC[C@H]1OC(=O)[C@H](C)[C@@H](O[C@H]2C[C@@](C)(OC)[C@@H](O)[C@H](C)O2)[C@H](C)[C@@H](O[C@@H]2O[C@H](C)C[C@H](N(C)C(C)=O)[C@H]2O)[C@](C)(OC)C[C@@H](C)C(=O)[C@H](C)[C@H]2[C@H](SCCN(Cc3c(Cl)cncc3Cl)c3ccc(OC)c(OC4CCCC4)c3)C(=O)O[C@@]21C [Example 10 of WO2009/106419]	0.031	32 (≈ 26.1 µM)	> 32	8 (≈ 6.53 µM)	8 (≈ 6.53 µM)	4 (≈ 3.26 µM)	2 (≈ 1.63 µM)	25.5	95.9	85.5	excellent	particularly good		strong remaining antibacterial activity against certain types of bacteria	
CC[C@H]1OC(=O)[C@H](C)[C@@H](O[C@H]2C[C@@](C)(OC)[C@@H](O)[C@H](C)O2)[C@H](C)[C@@H](O[C@@H]2O[C@H](C)C[C@H](N(C)C(=O)N3CCOCC3)[C@H]2O)[C@](C)(OC)C[C@@H](C)C(=O)[C@H](C)[C@H]2[C@H](SCCOc3cc(C(=O)Nc4c(Cl)cncc4Cl)ccc3OC)C(=O)O[C@@]21C [Example 15 WO2009/106419]	0.071	> 32	> 32	> 32	> 32	> 32	> 32	4.6	100	98.6	excellent	rather low		strongly reduced	

Reference: US9738676B2, “Selected macrolides with PDE4-inhibiting activity” (Basilea Pharmaceutica AG, priority 2012, dated 2017)
